Values of other authors, collected in patent US12233110B2, “Compositions comprising pharmaceutically acceptable salts of glucagon-like peptide-1 analogs and uses thereof” (i20 Therapeutics, Inc., priority 2021, dated 2025).

Conditions: Reference Data

pKa | Compound
approximately 6 | O=C(O)O [bicarbonate]
approximately 14 | C[N+](C)(C)CCO [choline]
